From publication doi:10.1101/2020.06.11.145995v1 (biorxiv, 2020)

What was measured:
Assay in all cases: biochemical
EIF2AK1 = EIF2AK1 (Homo sapiens, UniProt Q9BQI3); details: read-out: CPT-1-70-1 (1uM) % control
EPHA3 = EPHA3 (Homo sapiens, UniProt P29320); details: read-out: CPT-1-70-1 (1uM) % control
EPHA6 = EPHA6 (Homo sapiens, UniProt Q9UF33); details: read-out: CPT-1-70-1 (1uM) % control
FLT3-autoinhibited = FLT3-autoinhibited (Homo sapiens, UniProt P36888); details: read-out: CPT-1-70-1 (1uM) % control
KIT-autoinhibited = KIT-autoinhibited (Homo sapiens, UniProt P10721); details: read-out: CPT-1-70-1 (1uM) % control
KIT(V559D,T670I) = KIT(V559D,T670I) (Homo sapiens, UniProt P10721, T670I/V559D); details: read-out: CPT-1-70-1 (1uM) % control
NEK10 = NEK10 (Homo sapiens, UniProt Q6ZWH5); details: read-out: CPT-1-70-1 (1μM) % control
NIK = NIK (Homo sapiens, UniProt Q99558); details: read-out: CPT-1-70-1 (1μM) % control
PIK3CA(Q546K) = PIK3CA(Q546K) (Homo sapiens, UniProt P42336, Q546K); details: read-out: CPT-1-70-1 (1μM) % control
PIK3CB = PIK3CB (Homo sapiens, UniProt P42338); details: read-out: CPT-1-70-1 (1μM) % control
PIK3CD = PIK3CD (Homo sapiens, UniProt O00329); details: read-out: CPT-1-70-1 (1μM) % control
PIK3CG = PIK3CG (Homo sapiens, UniProt P48736); details: read-out: CPT-1-70-1 (1μM) % control
PIK4CB = PIK4CB (Homo sapiens, UniProt Q9UBF8); details: read-out: CPT-1-70-1 (1μM) % control
PIM1 = PIM1 (Homo sapiens, UniProt P11309); details: read-out: CPT-1-70-1 (1μM) % control
PIM2 = PIM2 (Homo sapiens, UniProt Q9P1W9); details: read-out: CPT-1-70-1 (1μM) % control
PIM3 = PIM3 (Homo sapiens, UniProt Q86V86); details: read-out: CPT-1-70-1 (1μM) % control
PIP5K1A = PIP5K1A (Homo sapiens, UniProt Q99755); details: read-out: CPT-1-70-1 (1μM) % control
PIP5K1C = PIP5K1C (Homo sapiens, UniProt O60331); details: read-out: CPT-1-70-1 (1μM) % control
PIP5K2B = PIP5K2B (Homo sapiens, UniProt P78356); details: read-out: CPT-1-70-1 (1μM) % control
PIP5K2C = PIP5K2C (Homo sapiens, UniProt Q8TBX8); details: read-out: CPT-1-70-1 (1μM) % control
PKAC-alpha = PKAC-alpha (Homo sapiens, UniProt P17612); details: read-out: CPT-1-70-1 (1μM) % control
PKAC-beta = PKAC-beta (Homo sapiens, UniProt P22694); details: read-out: CPT-1-70-1 (1μM) % control
PKMYT1 = PKMYT1 (Homo sapiens, UniProt Q99640); details: read-out: CPT-1-70-1 (1μM) % control
PKN1 = PKN1 (Homo sapiens, UniProt Q16512); details: read-out: CPT-1-70-1 (1μM) % control
PKN2 = PKN2 (Homo sapiens, UniProt Q16513); details: read-out: CPT-1-70-1 (1μM) % control
SGK = SGK (Homo sapiens, UniProt O00141); details: read-out: CPT-1-70-1 (1μM) % control
SGK2 = SGK2 (Homo sapiens, UniProt Q9HBY8); details: read-out: CPT-1-70-1 (1μM) % control
WNK1 = WNK1 (Homo sapiens, UniProt Q9H4A3); details: read-out: CPT-1-70-1 (1μM) % control
WNK3 = WNK3 (Homo sapiens, UniProt Q9BYP7); details: read-out: CPT-1-70-1 (1μM) % control

Sequence of SGK2 (Q9HBY8 whole entry): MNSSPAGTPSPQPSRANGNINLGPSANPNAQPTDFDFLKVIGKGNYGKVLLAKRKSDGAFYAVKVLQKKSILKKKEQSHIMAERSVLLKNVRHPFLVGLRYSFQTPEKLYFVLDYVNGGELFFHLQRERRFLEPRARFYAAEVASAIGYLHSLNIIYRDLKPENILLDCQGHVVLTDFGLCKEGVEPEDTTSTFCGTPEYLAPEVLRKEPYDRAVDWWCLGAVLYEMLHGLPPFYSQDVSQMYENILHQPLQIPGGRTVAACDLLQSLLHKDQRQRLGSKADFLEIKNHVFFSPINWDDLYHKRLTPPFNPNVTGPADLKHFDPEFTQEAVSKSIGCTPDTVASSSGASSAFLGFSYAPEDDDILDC
Sequence of PIP5K2C (Q8TBX8 whole entry): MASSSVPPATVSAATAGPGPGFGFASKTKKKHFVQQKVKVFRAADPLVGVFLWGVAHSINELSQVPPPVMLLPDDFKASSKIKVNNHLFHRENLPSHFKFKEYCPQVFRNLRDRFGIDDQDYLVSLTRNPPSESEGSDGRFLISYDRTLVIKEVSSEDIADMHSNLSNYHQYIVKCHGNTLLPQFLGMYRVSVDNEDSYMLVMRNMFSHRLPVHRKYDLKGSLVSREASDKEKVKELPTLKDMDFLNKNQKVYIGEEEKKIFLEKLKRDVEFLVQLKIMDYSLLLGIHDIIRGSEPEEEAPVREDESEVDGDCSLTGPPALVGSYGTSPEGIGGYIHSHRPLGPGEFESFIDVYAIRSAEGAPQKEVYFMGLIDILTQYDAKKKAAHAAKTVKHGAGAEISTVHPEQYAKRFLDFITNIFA
Sequence of PIM2 (Q9P1W9 whole entry): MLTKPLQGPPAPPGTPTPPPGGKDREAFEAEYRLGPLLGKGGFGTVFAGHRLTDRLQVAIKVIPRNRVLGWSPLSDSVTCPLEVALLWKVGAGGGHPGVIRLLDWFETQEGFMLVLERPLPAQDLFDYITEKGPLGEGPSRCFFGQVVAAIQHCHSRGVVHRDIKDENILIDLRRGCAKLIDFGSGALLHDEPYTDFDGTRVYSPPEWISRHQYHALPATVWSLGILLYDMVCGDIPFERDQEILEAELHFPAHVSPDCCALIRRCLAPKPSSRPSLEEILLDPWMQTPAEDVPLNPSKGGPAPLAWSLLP
Sequence of PIK3CG (P48736 whole entry): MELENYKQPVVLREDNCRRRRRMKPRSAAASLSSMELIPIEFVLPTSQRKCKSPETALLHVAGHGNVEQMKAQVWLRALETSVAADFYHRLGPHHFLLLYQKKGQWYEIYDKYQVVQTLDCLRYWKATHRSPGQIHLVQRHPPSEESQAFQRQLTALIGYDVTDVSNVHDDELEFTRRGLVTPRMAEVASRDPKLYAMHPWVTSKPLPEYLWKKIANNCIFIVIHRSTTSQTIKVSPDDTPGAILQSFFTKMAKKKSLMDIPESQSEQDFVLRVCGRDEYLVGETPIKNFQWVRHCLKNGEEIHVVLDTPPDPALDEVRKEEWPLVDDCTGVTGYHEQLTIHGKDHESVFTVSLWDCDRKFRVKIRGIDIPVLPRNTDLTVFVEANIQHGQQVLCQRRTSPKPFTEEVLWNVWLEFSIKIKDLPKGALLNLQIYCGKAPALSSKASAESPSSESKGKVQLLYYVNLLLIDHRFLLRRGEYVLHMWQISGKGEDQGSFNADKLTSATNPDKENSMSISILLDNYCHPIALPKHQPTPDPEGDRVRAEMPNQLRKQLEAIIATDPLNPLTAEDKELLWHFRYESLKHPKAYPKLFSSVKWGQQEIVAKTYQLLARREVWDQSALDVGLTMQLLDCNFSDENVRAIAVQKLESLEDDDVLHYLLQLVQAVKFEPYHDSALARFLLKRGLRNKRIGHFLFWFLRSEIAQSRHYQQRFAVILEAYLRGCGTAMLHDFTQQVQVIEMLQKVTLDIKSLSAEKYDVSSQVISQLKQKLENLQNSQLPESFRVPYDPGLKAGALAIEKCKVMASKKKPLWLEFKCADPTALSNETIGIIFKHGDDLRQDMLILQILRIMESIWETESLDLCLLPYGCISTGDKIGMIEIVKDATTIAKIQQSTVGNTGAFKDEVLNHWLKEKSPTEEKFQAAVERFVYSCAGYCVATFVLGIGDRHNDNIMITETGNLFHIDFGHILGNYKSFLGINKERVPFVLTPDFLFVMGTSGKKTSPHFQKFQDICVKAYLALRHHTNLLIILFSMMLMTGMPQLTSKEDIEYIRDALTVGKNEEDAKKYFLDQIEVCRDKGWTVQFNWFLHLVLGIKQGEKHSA
Sequence of PIK3CA(Q546K) (P42336 whole entry Q546K): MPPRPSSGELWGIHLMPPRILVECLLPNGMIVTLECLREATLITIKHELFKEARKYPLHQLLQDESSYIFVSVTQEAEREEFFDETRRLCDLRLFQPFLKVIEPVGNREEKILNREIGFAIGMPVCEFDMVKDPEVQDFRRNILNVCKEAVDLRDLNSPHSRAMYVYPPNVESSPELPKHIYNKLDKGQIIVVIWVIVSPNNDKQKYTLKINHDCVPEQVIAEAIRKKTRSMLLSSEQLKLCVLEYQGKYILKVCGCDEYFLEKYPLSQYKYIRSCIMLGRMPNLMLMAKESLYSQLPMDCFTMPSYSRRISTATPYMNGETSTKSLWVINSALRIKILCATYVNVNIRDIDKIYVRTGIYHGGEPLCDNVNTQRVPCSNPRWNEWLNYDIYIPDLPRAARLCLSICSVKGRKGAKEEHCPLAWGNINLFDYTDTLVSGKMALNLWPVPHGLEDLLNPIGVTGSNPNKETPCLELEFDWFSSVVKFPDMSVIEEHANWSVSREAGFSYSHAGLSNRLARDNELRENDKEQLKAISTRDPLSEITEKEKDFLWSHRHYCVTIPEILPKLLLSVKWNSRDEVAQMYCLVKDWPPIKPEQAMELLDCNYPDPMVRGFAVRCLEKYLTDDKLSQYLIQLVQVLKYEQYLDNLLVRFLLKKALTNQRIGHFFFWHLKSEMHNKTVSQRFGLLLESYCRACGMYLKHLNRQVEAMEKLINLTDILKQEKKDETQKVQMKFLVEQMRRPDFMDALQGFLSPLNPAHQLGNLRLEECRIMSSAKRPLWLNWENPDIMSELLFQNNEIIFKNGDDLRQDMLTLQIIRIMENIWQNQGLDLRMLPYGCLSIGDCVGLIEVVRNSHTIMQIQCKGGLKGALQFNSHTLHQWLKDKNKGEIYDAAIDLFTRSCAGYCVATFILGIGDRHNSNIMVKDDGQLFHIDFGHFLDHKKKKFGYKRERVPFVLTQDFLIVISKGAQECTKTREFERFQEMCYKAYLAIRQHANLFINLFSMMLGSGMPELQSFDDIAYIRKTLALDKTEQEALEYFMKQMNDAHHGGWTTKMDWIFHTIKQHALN
Sequence of PIP5K1A (Q99755 whole entry): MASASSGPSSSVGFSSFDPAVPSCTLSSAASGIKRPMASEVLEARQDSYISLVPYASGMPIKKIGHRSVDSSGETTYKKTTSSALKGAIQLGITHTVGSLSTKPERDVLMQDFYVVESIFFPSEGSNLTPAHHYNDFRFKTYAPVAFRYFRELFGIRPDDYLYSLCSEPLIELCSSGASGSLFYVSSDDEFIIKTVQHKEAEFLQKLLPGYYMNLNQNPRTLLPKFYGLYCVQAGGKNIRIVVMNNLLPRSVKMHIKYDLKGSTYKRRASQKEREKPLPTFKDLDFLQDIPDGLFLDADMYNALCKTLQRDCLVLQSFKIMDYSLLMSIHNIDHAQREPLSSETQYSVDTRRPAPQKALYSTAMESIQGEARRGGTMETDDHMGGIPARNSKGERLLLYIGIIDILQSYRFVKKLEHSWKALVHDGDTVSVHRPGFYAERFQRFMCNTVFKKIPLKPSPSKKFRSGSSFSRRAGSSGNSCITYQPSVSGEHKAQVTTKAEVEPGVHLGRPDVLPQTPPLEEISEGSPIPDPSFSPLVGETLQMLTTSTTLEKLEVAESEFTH
Sequence of KIT-autoinhibited (P10721 whole entry): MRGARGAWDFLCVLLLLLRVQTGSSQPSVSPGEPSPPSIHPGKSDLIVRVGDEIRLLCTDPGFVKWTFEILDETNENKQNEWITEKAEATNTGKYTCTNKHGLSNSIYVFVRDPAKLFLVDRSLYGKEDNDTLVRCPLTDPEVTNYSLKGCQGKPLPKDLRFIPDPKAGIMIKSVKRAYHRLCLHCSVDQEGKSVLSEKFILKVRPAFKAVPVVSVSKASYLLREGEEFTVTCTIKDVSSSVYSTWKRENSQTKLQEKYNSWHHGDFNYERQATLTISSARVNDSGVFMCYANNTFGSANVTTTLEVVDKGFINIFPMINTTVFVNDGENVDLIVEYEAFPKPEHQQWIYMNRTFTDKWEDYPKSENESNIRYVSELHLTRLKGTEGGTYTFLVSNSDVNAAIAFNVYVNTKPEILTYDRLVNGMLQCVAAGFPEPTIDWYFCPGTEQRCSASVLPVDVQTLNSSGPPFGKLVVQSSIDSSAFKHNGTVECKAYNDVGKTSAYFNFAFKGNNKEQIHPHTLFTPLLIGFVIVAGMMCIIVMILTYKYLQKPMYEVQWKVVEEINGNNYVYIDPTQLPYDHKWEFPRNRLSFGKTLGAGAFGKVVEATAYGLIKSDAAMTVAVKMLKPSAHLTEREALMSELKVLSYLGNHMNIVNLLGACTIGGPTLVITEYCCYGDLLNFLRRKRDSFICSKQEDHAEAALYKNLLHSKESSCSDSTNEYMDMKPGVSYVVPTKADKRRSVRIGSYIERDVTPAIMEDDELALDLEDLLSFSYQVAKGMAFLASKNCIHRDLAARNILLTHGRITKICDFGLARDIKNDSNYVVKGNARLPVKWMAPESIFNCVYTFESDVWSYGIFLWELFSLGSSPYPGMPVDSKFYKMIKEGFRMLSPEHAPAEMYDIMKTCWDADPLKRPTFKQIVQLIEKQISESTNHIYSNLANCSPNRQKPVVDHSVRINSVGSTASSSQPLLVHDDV
Sequence of KIT(V559D,T670I) (P10721 whole entry V559D/T670I): as the sequence (P10721 whole entry) above, with V559D, T670I counted along it

Question: Which results are given for `CN1CCN(c2ccc(Nc3nc(Oc4ccc(NC(=O)CCl)cc4)c4cc[nH]c4n3)cc2)CC1` [CPT1-70-1]?
Answer: remaining activity at 1 µM (EIF2AK1): 100%; remaining activity at 1 µM (EPHA3): 100%; remaining activity at 1 µM (EPHA6): 100%; remaining activity at 1 µM (FLT3-autoinhibited): 38%; remaining activity at 1 µM (KIT-autoinhibited): 39%; remaining activity at 1 µM (KIT(V559D,T670I)): 28%; remaining activity at 1 µM (NEK10): 14%; remaining activity at 1 µM (NIK): 100%; remaining activity at 1 µM (PIK3CA(Q546K)): 100%; remaining activity at 1 µM (PIK3CB): 100%; remaining activity at 1 µM (PIK3CD): 100%; remaining activity at 1 µM (PIK3CG): 100%; remaining activity at 1 µM (PIK4CB): 100%; remaining activity at 1 µM (PIM1): 100%; remaining activity at 1 µM (PIM2): 100%; remaining activity at 1 µM (PIM3): 81%; remaining activity at 1 µM (PIP5K1A): 13%; remaining activity at 1 µM (PIP5K1C): 57%; remaining activity at 1 µM (PIP5K2B): 100%; remaining activity at 1 µM (PIP5K2C): 63%; remaining activity at 1 µM (PKAC-alpha): 69%; remaining activity at 1 µM (PKAC-beta): 100%; remaining activity at 1 µM (PKMYT1): 94%; remaining activity at 1 µM (PKN1): 79%; remaining activity at 1 µM (PKN2): 100%; remaining activity at 1 µM (SGK): 26%; remaining activity at 1 µM (SGK2): 100%; remaining activity at 1 µM (WNK1): 100%; remaining activity at 1 µM (WNK3): 100%
